From ChEMBL document CHEMBL1150049, “Isolation and characterization of an antiviral flavonoid from Waldsteinia fragarioides” (J Nat Prod, 1992)
Active and inactive are the calls of the source. No cut-off for these calls is given here.

Assays:
Vero = test: Cytotoxicity against african green monkey Vero cells at 250 ug/ml; assay type: cell-based; conditions: chlorocebus sabaeus
Human alphaherpesvirus 1 = test: Antiviral activity against HSV1 infected in african green monkey Vero cells assessed as suppression of plaque formation at 40 ug/ml by plaque-reduction assay; assay type: functional, organism-based

Q: Which Activity (Vero) does the source give for `O=c1c(O[C@@H]2O[C@H](CO)[C@@H](O)[C@H](O)[C@H]2O)c(-c2ccc(O)c(O)c2)oc2cc(O)cc(O)c12` [ISOQUERCETIN] here?
A: Toxic

Q: And the Activity (Human alphaherpesvirus 1)?
A: Active
